The values that follow come from BindingDB's records for patent US20240270732 (Chengdu Biobel Biotechnology Co., 2024).

The experiment has as its target T1, Receptor-interacting serine/threonine-protein kinase 1 (Homo sapiens, UniProt Q13546).
T1 sequence (Q13546 whole entry): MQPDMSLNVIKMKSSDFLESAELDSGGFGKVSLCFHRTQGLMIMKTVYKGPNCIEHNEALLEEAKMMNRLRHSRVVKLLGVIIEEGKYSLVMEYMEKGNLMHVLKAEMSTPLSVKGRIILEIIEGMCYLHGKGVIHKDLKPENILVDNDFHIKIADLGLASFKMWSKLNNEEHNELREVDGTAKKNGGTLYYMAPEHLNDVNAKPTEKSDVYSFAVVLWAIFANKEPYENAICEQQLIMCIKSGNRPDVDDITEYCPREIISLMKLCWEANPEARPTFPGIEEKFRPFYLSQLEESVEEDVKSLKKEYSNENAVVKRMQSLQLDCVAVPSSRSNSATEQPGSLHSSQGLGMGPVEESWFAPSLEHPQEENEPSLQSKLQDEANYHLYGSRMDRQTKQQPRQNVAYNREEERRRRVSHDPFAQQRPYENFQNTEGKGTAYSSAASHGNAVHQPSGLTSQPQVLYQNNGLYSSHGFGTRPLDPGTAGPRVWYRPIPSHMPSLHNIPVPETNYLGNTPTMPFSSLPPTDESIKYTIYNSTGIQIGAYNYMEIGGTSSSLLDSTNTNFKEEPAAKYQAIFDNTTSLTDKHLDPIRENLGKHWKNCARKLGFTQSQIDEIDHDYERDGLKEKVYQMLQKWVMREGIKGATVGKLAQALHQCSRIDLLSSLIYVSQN
The experiment is described as follows: Inhibitory Activity Assay. The procedure: The compound of the present invention and the control compound were dissolved in the assay buffer (50 mM Hepes pH 7.5, 50 mM NaCl, 30 mM MgCl2, 1 mM DTT, 0.02% CHAPS, 0.5 mg/mL BSA), and diluted in a ratio of 1:1.5 using a 22-point titration (high concentration 2 μM), and then added to a 384-well plate. […] After completion of the reaction, 5 μL of ADP-Glo reagent containing 0.02% CHAPS was added to each well and incubated at room temperature for 1 h to terminate the kinase reaction and use up all remaining ATP. Then, 5 μL of ADP-Glo detection solution containing 0.02% CHAPS was added to each well and incubated at room temperature for 30 min to measure the emittance intensity.
Broadly, the IC50 is the concentration at which inhibition is half-maximal. On to `C#CCN1CCN(CC#Cc2ccc3c(c2)N(C)C(=O)[C@@H](NC(=O)c2ncn(Cc4cccc(O)c4)n2)[C@@H](C)O3)CC1` [US20240270732, Compound I-75], for which the IC50 was determined as 21 nM.

`C[C@H]1Oc2ccc(C#CCN3CCN(CC#Cc4ccc5c(c4)N(C)C(=O)[C@@H](NC(=O)c4ncn(Cc6cccc(O)c6)n4)[C@@H](C)O5)CC3)cc2N(C)C(=O)[C@H]1NC(=O)c1ncn(Cc2cccc(O)c2)n1` [US20240270732, Compound I-76] registered a 50% inhibitory concentration (IC50) of 22.4 nM.

As for `C#CCN1CCN(CC#Cc2ccc3c(c2)N(C)C(=O)[C@@H](NC(=O)c2ncn(Cc4cccc(N)c4)n2)[C@@H](C)O3)CC1` [US20240270732, Compound I-77], inhibition was half-maximal at 29 nM (IC50).

On to `C[C@H]1Oc2ccc(C#CCN3CCN(CC#Cc4ccc5c(c4)N(C)C(=O)[C@@H](NC(=O)c4ncn(Cc6cccc(N)c6)n4)[C@@H](C)O5)CC3)cc2N(C)C(=O)[C@H]1NC(=O)c1ncn(Cc2cccc(N)c2)n1` [US20240270732, Compound I-78], for which the half-maximal inhibitory concentration (IC50) was 23.1 nM.

In the case of `C[C@H]1Oc2ccc(C#CCCCCC#Cc3ccc4c(c3)N(C)C(=O)[C@@H](NC(=O)c3n[nH]c(Cc5ccccc5)n3)[C@@H](C)O4)cc2N(C)C(=O)[C@H]1NC(=O)c1n[nH]c(Cc2ccccc2)n1` [US20240270732, Compound I-79], half-maximal inhibition (IC50) was put at 10.5 nM.

As for `CN1C(=O)[C@@H](NC(=O)c2n[nH]c(Cc3ccccc3)n2)COc2ccc(C#CCOCCOCCOCCOCCOCC#Cc3ccc4c(c3)N(C)C(=O)[C@@H](NC(=O)c3n[nH]c(Cc5ccccc5)n3)CO4)cc21` [US20240270732, Compound I-82-1], the half-inhibitory concentration (IC50) stood at 6.6 nM.

Compound `C#CCOCCOCCOCCOCCOCC#Cc1ccc2c(c1)N(C)C(=O)[C@@H](NC(=O)c1n[nH]c(Cc3ccccc3)n1)CO2` [US20240270732, Compound I-82-2] registered an IC50 of 7.15 nM.

On to `C[C@H]1Oc2ccc(C#CCOCCOCCOCCOCCOCC#Cc3ccc4c(c3)N(C)C(=O)[C@@H](NC(=O)c3n[nH]c(Cc5ccccc5)n3)CO4)cc2N(C)C(=O)[C@H]1NC(=O)c1n[nH]c(Cc2ccccc2)n1` [US20240270732, Compound I-83], for which inhibition was half-maximal at 8.18 nM (IC50).

`C[C@H]1Oc2ccc(C#CCOCCOCCOCCOCCOCC#Cc3ccc4c(c3)N(C)C(=O)[C@@H](NC(=O)c3ncn(Cc5ccccc5)n3)[C@@H](C)O4)cc2N(C)C(=O)[C@H]1NC(=O)c1ncn(Cc2ccccc2)n1` [US20240270732, Compound I-84-1] came in with a half-inhibitory concentration (IC50) of 8.99 nM.

Compound `C#CCOCCOCCOCCOCCOCC#Cc1ccc2c(c1)N(C)C(=O)[C@@H](NC(=O)c1ncn(Cc3ccccc3)n1)[C@@H](C)O2` [US20240270732, Compound I-84-2] displayed a concentration for half-maximal inhibition (IC50) of 8.03 nM.

For the compound `CN1C(=O)[C@@H](NC(=O)c2ncn(Cc3ccccc3)n2)COc2ccc(C#CCOCCOCCOCCOCCOCC#Cc3ccc4c(c3)N(C)C(=O)[C@@H](NC(=O)c3ncn(Cc5ccccc5)n3)CO4)cc21` [US20240270732, Compound I-85-1], the IC50 came out at 7.49 nM.

As for `C#CCOCCOCCOCCOCCOCC#Cc1ccc2c(c1)N(C)C(=O)[C@@H](NC(=O)c1ncn(Cc3ccccc3)n1)CO2` [US20240270732, Compound I-85-2], the IC50 was found to be 6.63 nM.

`C[C@H]1Oc2ccc(C#CCOCCOCCOCCOCCOCC#Cc3ccc4c(c3)N(C)C(=O)[C@@H](NC(=O)c3ncn(Cc5ccccc5)n3)CO4)cc2N(C)C(=O)[C@H]1NC(=O)c1ncn(Cc2ccccc2)n1` [US20240270732, Compound I-86] gave an IC50 of 7.91 nM.

On to `C[C@H]1Oc2ccc(C#CCOCCOCCOCCOCCOCC#CC#CCOCCOCCOCCOCCOCC#Cc3ccc4c(c3)N(C)C(=O)[C@@H](NC(=O)c3n[nH]c(Cc5ccccc5)n3)[C@@H](C)O4)cc2N(C)C(=O)[C@H]1NC(=O)c1n[nH]c(Cc2ccccc2)n1` [US20240270732, Compound I-87], for which the IC50 was found to be 6.32 nM.

`CN1C(=O)[C@@H](NC(=O)c2n[nH]c(Cc3ccccc3)n2)COc2ccc(C#CCOCCOCCOCCOCCOCC#CC#CCOCCOCCOCCOCCOCC#Cc3ccc4c(c3)N(C)C(=O)[C@@H](NC(=O)c3n[nH]c(Cc5ccccc5)n3)CO4)cc21` [US20240270732, Compound I-88] gave an IC50 of 6.58 nM.

`C[C@H]1Oc2ccc(C#CCN3CCN(CC#CC#CCN4CCN(CC#Cc5ccc6c(c5)N(C)C(=O)[C@@H](NC(=O)c5n[nH]c(Cc7ccccc7)n5)[C@@H](C)O6)CC4)CC3)cc2N(C)C(=O)[C@H]1NC(=O)c1n[nH]c(Cc2ccccc2)n1` [US20240270732, Compound I-91] registered an IC50 of 4.36 nM.

Regarding `CN1C(=O)[C@@H](NC(=O)c2n[nH]c(Cc3ccccc3)n2)COc2ccc(C#CCN3CCN(CC#CC#CCN4CCN(CC#Cc5ccc6c(c5)N(C)C(=O)[C@@H](NC(=O)c5n[nH]c(Cc7ccccc7)n5)CO6)CC4)CC3)cc21` [US20240270732, Compound I-92], the IC50 turned out to be 5.89 nM.

Take `C[C@H]1Oc2ccc(C#CCN3CCN(CC#CC#CCN4CCN(CC#Cc5ccc6c(c5)N(C)C(=O)[C@@H](NC(=O)c5ncn(Cc7ccccc7)n5)[C@@H](C)O6)CC4)CC3)cc2N(C)C(=O)[C@H]1NC(=O)c1ncn(Cc2ccccc2)n1` [US20240270732, Compound I-93]: the IC50 was 5.73 nM.

Compound `CN1C(=O)[C@@H](NC(=O)c2ncn(Cc3ccccc3)n2)COc2ccc(C#CCN3CCN(CC#CC#CCN4CCN(CC#Cc5ccc6c(c5)N(C)C(=O)[C@@H](NC(=O)c5ncn(Cc7ccccc7)n5)CO6)CC4)CC3)cc21` [US20240270732, Compound I-94] returned an IC50 of 6.16 nM.

`C[C@H]1Oc2ccc(C#CCCCN(C)CCCC#Cc3ccc4c(c3)N(C)C(=O)[C@@H](NC(=O)c3n[nH]c(Cc5ccccc5)n3)[C@@H](C)O4)cc2N(C)C(=O)[C@H]1NC(=O)c1n[nH]c(Cc2ccccc2)n1` [US20240270732, Compound I-95] returned an IC50 of 19.8 nM.

Regarding `CN(CCCC#Cc1ccc2c(c1)N(C)C(=O)[C@@H](NC(=O)c1n[nH]c(Cc3ccccc3)n1)CO2)CCCC#Cc1ccc2c(c1)N(C)C(=O)[C@@H](NC(=O)c1n[nH]c(Cc3ccccc3)n1)CO2` [US20240270732, Compound I-96], the half-inhibitory concentration (IC50) turned out to be 18.5 nM.

As for `C[C@H]1Oc2ccc(C#CCCCN(C)CCCC#Cc3ccc4c(c3)N(C)C(=O)[C@@H](NC(=O)c3ncn(Cc5ccccc5)n3)[C@@H](C)O4)cc2N(C)C(=O)[C@H]1NC(=O)c1ncn(Cc2ccccc2)n1` [US20240270732, Compound I-97], the midpoint of inhibition, the IC50, lay at 18.3 nM.

Regarding `CN(CCCC#Cc1ccc2c(c1)N(C)C(=O)[C@@H](NC(=O)c1ncn(Cc3ccccc3)n1)CO2)CCCC#Cc1ccc2c(c1)N(C)C(=O)[C@@H](NC(=O)c1ncn(Cc3ccccc3)n1)CO2` [US20240270732, Compound I-98], the midpoint of inhibition, the IC50, lay at 17 nM.

`COCCOCCOCCOCCOCC#Cc1ccc2c(c1)N(C)C(=O)[C@@H](NC(=O)c1n[nH]c(Cc3ccccc3)n1)[C@@H](C)O2` [US20240270732, Compound I-99] gave an IC50 of 2.39 nM.

The compound `COCCOCCOCCOCCOCC#Cc1ccc2c(c1)N(C)C(=O)[C@@H](NC(=O)c1n[nH]c(Cc3ccccc3)n1)CO2` [US20240270732, Compound I-100] gave an IC50 of 1.47 nM.

`COCCOCCOCCOCCOCC#Cc1ccc2c(c1)N(C)C(=O)[C@@H](NC(=O)c1ncn(Cc3ccccc3)n1)[C@@H](C)O2` [US20240270732, Compound I-101] had an IC50 of 2.54 nM.

`COCCOCCOCCOCCOCC#Cc1ccc2c(c1)N(C)C(=O)[C@@H](NC(=O)c1ncn(Cc3ccccc3)n1)CO2` [US20240270732, Compound I-102] registered an IC50 of 1.88 nM.

`CC(O)C#Cc1ccc2c(c1)N(C)C(=O)[C@@H](NC(=O)c1n[nH]c(Cc3ccccc3)n1)[C@@H](C)O2` (stereo not given in full) [US20240270732, Compound I-103] showed an IC50 of 10.2 nM.

For `C[C@H]1Oc2ccc(C#CCCO)cc2N(C)C(=O)[C@H]1NC(=O)c1n[nH]c(Cc2ccccc2)n1` [US20240270732, Compound I-105], the midpoint of inhibition, the IC50, lay at 4.85 nM.

`C[C@H]1Oc2ccc(C#CCCO)cc2N(C)C(=O)[C@H]1NC(=O)c1ncn(Cc2ccccc2)n1` [US20240270732, Compound I-106] showed a half-maximal inhibitory concentration (IC50) of 6.53 nM.

Compound `C[C@H]1Oc2ccc(C#CCCCCC(=O)O)cc2N(C)C(=O)[C@H]1NC(=O)c1n[nH]c(Cc2ccccc2)n1` [US20240270732, Compound I-107] displayed an IC50 of 19.9 nM.

`C[C@H]1Oc2ccc(C#CCCCCC(=O)O)cc2N(C)C(=O)[C@H]1NC(=O)c1ncn(Cc2ccccc2)n1` [US20240270732, Compound I-108] had a 50% inhibitory concentration (IC50) of 20.5 nM.

Compound `C[C@H]1Oc2ccc(C#Cc3ccncc3)cc2N(C)C(=O)[C@H]1NC(=O)c1n[nH]c(Cc2ccccc2)n1` [US20240270732, Compound I-109] came in with a half-maximal inhibitory concentration (IC50) of 4.26 nM.

In turn, `C[C@H]1Oc2ccc(C#Cc3ccncc3)cc2N(C)C(=O)[C@H]1NC(=O)c1ncn(Cc2ccccc2)n1` [US20240270732, Compound I-110] showed an IC50 of 4.73 nM.

On to `C[C@H]1Oc2ccc(C#Cc3cccnc3)cc2N(C)C(=O)[C@H]1NC(=O)c1n[nH]c(Cc2ccccc2)n1` [US20240270732, Compound I-111], for which half-maximal inhibition (IC50) was put at 6.69 nM.
